Data reported in BindingDB's records for patent US20250313563 (The Broad Institute, 2025).
pIC50: −log10 of the molar value. Several values for one entry are separate records, joined by “and”; a condition that tells them apart may be missing. Equal values may be shown once.

Tests used:
[1] = molecular target: Glycogen synthase kinase-3 beta (Homo sapiens, UniProt P49841); test: TR-FRET Assay
In short: (§1)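 Enzyme and test compound were first incubated together for 30 minutes in assay buffer. The kinase reaction followed and was stopped with EDTA. The pSer641 signal was read by time-resolved FRET.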

[2] = molecular target: Glycogen synthase kinase-3 alpha (Homo sapiens, UniProt P49840); test: TR-FRET Assay
Chain of Glycogen synthase kinase-3 alpha (P49840 whole entry): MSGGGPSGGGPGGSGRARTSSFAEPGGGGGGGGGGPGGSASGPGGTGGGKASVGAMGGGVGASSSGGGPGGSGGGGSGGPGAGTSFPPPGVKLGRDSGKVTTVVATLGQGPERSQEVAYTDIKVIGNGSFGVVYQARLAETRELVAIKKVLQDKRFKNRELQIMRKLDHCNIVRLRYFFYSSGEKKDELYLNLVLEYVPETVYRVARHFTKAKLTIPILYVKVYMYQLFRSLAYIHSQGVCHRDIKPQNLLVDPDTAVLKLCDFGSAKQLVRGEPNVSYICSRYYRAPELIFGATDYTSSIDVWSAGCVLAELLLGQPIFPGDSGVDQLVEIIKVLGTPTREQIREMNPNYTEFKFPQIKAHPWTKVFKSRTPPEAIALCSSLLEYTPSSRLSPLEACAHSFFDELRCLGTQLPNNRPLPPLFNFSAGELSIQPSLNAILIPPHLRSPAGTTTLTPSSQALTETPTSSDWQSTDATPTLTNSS
In short: as §1

Chain of Glycogen synthase kinase-3 beta (P49841 whole entry): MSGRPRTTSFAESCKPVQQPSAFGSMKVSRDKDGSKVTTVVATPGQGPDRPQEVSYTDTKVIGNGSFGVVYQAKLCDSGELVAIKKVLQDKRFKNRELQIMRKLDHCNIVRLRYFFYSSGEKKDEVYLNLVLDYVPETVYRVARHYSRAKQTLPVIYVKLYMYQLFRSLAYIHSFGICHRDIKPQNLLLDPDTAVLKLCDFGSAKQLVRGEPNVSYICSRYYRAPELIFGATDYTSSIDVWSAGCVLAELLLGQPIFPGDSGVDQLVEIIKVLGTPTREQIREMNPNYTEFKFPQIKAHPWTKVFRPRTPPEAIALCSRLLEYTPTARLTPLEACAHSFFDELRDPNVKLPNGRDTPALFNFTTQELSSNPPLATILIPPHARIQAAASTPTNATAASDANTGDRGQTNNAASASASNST

| SMILES | pIC50 [1] | pIC50 [2] |
| --- | --- | --- |
| CC[C@]1(c2cccc(-c3cnnc(C)c3)c2)C2=CN=NC2NC2=C1C(=O)NC(C)(C)C2 (some centres not stated) [US20250313563, Compound 944071] | < 5.30 | 5.30 to 6.00 |
| C[S@+]([O-])c1cccc([C@]2(C)C3=C(CC(C)(C)CC3=O)NC3=C2C(CC(C)(C)C)N=N3)c1 (some centres not stated) [US20250313563, Compound 126190] | 6.00 to 7.00 | 5.30 to 6.00 |
| CC[C@]1(c2cccc(C3=CNN4CC(F)=CC(F)=C34)c2)C2=CN=NC2NC2=C1C(=O)NC(C)(C)C2 (some centres not stated) [US20250313563, Compound 949390] | < 5.30 | 5.30 to 6.00 |
| CCC1(c2cccc(-c3cnn(C)c3)c2)C2=C(CC(C)(C)CC2=O)NC2N=NC(C(F)(F)F)=C21 (configuration not stated) [US20250313563, Compound 801445] | > 7.00 | > 7.00 |
| CC[C@@]1(c2cccc(Oc3ncccn3)c2)C2=CN=NC2NC2=C1C(=O)NC(C)(C)C2 (some centres not stated) [US20250313563, Compound 949330] | 6.00 to 7.00 | > 7.00 |
| CC[C@@]1(c2cccc(-c3cnn(CCc4ccccc4)c3)c2)C2=CN=NC2NC2=C1C(=O)NC(C)(C)C2 (some centres not stated) [US20250313563, Compound 952017] | 6.00 to 7.00 | > 7.00 |
| Cc1cccc(S(=O)(=O)N2CCC3(CC2)C2=C(N=NC2)NC2=C3C(=O)CC(C)(C)C2)c1 [US20250313563, Compound 947261] | > 7.00 | > 7.00 |
| CC[C@@]1(c2cccc(-c3cnn(-c4ccccc4)c3C(F)(F)F)c2)C2=CN=NC2NC2=C1C(=O)NC(C)(C)C2 (some centres not stated) [US20250313563, Compound 951837] | 6.00 to 7.00 | 6.00 to 7.00 |
| CC[C@@]1(c2cccc(C(F)(F)F)c2)C2=CN=NC2NC2=C1C(=O)N(c1ccccc1)C2 (some centres not stated) [US20250313563, Compound 945377] | 5.30 to 6.00 | 6.00 to 7.00 |
| CC[C@]1(c2cccc(Br)c2)C2=C(CC(C)(C)CC2=O)NC2N=NC(C(F)(F)F)=C21 (some centres not stated) [US20250313563, Compound 810366] | > 7.00 and 6.00 to 7.00 | > 7.00 |
| CC1(C)CC(=O)C2=C(C1)NC1=C(CN=N1)[C@@]21COC2(CN(C(=O)C(C)(F)F)C2)C1 [US20250313563, Compound 947839] | 6.00 to 7.00 | > 7.00 |
| CC[C@]1(c2cccc(C(F)(F)F)c2)C2=CN=NC2NC2=C1C(=O)N(C)C[C@H]2C (some centres not stated) [US20250313563, Compound 883980] | > 7.00 and 5.30 to 6.00 | > 7.00 and 6.00 to 7.00 |
| CC1(C)CC(=O)C2=C(C1)NC1=C(CN=N1)C21COC2(CN(S(=O)(=O)c3ccccc3)C2)C1 (configuration not stated) [US20250313563, Compound 913002] | 5.30 to 6.00 | 6.00 to 7.00 |
| CC(C)(C)CC1=C2C(N=N1)NC1=C(C(=O)CC(C)(C)C1)[C@@]21CCc2cc(F)ccc21 (some centres not stated) [US20250313563, Compound 782425] | 6.00 to 7.00 | 6.00 to 7.00 |
| CCC1(c2ccccc2)C2=C(CC(C)(C)CC2=O)NC2N=NC(C(F)(F)F)=C21 (configuration not stated) [US20250313563, Compound 792343] | > 7.00 | > 7.00 |
| CC1(C)CC(=O)C2=C(C1)NC1=C(CN=N1)[C@]2(C)c1cccc(-c2ccccc2)c1 [US20250313563, Compound 801367] | 6.00 to 7.00 | > 7.00 |
| CC[C@@]1(c2cccc(-c3ccnc(C)c3Cl)c2)C2=CN=NC2NC2=C1C(=O)NC(C)(C)C2 (some centres not stated) [US20250313563, Compound 948361] | > 7.00 and 5.30 to 6.00 | > 7.00 and 6.00 to 7.00 |
| CC[C@]1(c2cccc(C(F)(F)F)c2)C2=CN=NC2NC2=C1C(=O)N(c1cn(C)c(C)n1)CC2 (some centres not stated) [US20250313563, Compound 952478] | < 5.30 | 5.30 to 6.00 |
| Cc1nc(C)c(S(=O)(=O)N2CCC3(CC2)C2=C(N=NC2)NC2=C3C(=O)CC(C)(C)C2)s1 [US20250313563, Compound 947259] | > 7.00 | > 7.00 |
| CC[C@]1(c2cccc(S(=O)(=O)C3CC3)c2)C2=C(CC(C)(C)NC2=O)NC2=C1C(C(F)(F)F)N=N2 (some centres not stated) [US20250313563, Compound 948771] | > 7.00 and 6.00 to 7.00 | > 7.00 |
| CC[C@@]1(c2cccc(Oc3ncccn3)c2)C2=C(CC(C)(C)NC2=O)NC2N=NC(Cl)=C21 (some centres not stated) [US20250313563, Compound 951605] | < 5.30 | 5.30 to 6.00 |
| CC[C@]1(c2cccc(Oc3ncccn3)c2)C2=C(CC(C)(C)NC2=O)NC2N=NC(Cl)=C21 (some centres not stated) [US20250313563, Compound 951606] | > 7.00 and 6.00 to 7.00 | > 7.00 |
| CC(=O)N1CC[C@@]2(C1)C[C@@]1(CO2)C2=C(N=NC2)NC2=C1C(=O)CC(C)(C)C2 [US20250313563, Compound 948320] | 5.30 to 6.00 | 6.00 to 7.00 |
| CCC1(c2ccccc2)C2=C(N=NC2)NC2=C1C(=O)CC1(CC1)C2 (configuration not stated) [US20250313563, Compound 789330] | 5.30 to 6.00 | 6.00 to 7.00 |
| CC[C@@]1(c2cccc(-c3cnn(C)c3)c2)C2=C(CC(C)(C)NC2=O)NC2N=NC(C(F)F)=C21 (some centres not stated) [US20250313563, Compound 949919] | > 7.00 and 6.00 to 7.00 | > 7.00 |
| CC[C@@]1(c2cccc(-c3ccnc(C)c3)c2)C2=CN=NC2NC2=C1C(=O)C[C@H](C)C2 (some centres not stated) [US20250313563, Compound 932638] | < 5.30 | < 5.30 |
| CC[C@@]1(c2cccc(-c3ccnc(C)c3)c2)C2=C(CC(C)(C)NC2=O)NC2N=NC(C(F)(F)F)=C21 (some centres not stated) [US20250313563, Compound 948774] | > 7.00 | > 7.00 |
| CC[C@@]1(c2cccc(-c3cnn(-c4cnccn4)c3)c2)C2=CN=NC2NC2=C1C(=O)NC(C)(C)C2 (some centres not stated) [US20250313563, Compound 952207] | 5.30 to 6.00 | 6.00 to 7.00 |
| Cc1cccc2c1CC[C@@]21C2=C(N=NC2)NC2=C1C(=O)CC(C)(C)C2 [US20250313563, Compound 913136] | 6.00 to 7.00 | > 7.00 |

The remaining lines, values ahead:

| pIC50 [1] | pIC50 [2] | SMILES |
| --- | --- | --- |
| < 5.78 | 6.00 to 7.00 | CCC1(c2cccc(N3CCOCC3)c2)C2=CN=NC2NC2=C1C(=O)CC(C)(C)C2 (configuration not stated) [US20250313563, Compound 801318] |
| 5.30 to 6.00 | 6.00 to 7.00 | CCC1(c2cccc(N(C)c3ccnc(C)c3)c2)C2=CN=NC2NC2=C1C(=O)CC(C)(C)C2 (configuration not stated) [US20250313563, Compound 917149] |
| < 5.30 | 5.30 to 6.00 | CC[C@@]1(c2cccc(-c3cc(C)ncc3C)c2)C2=CN=NC2NC2=C1C(=O)CC(C)(C)C2 (some centres not stated) [US20250313563, Compound 943515] |
| 5.30 to 6.00 | > 7.00 | CCC1(c2cccc(-c3ccnc(C(C)(C)O)c3)c2)C2=CN=NC2NC2=C1C(=O)CC(C)(C)C2 (configuration not stated) [US20250313563, Compound 943536] |
| < 5.30 | 5.30 to 6.00 | CC[C@@]1(c2cc(-c3ccncc3)ccc2F)C2=CN=NC2NC2=C1C(=O)CC(C)(C)C2 (some centres not stated) [US20250313563, Compound 893324] |
| 6.00 to 7.00 | 6.00 to 7.00 | O=C1CC2(CSC2)CC2=C1C1(CCCC1)C1=CN=NC1N2 (configuration not stated) [US20250313563, Compound 913441] |
| 6.00 to 7.00 | > 7.00 | CC[C@]1(c2cc(N(C)C(C)=O)ccc2F)C2=CN=NC2NC2=C1C(=O)CC(C)(C)C2 (some centres not stated) [US20250313563, Compound 929450] |
| 6.00 to 7.00 | > 7.00 | CCC1(c2cccc(N(C)c3ccncn3)c2)C2=CN=NC2NC2=C1C(=O)CC(C)(C)C2 (configuration not stated) [US20250313563, Compound 902970] |
| 5.30 to 6.00 | 6.00 to 7.00 | CC[C@@]1(c2cccc(S(=O)(=O)C3CCCCC3)c2)C2=CN=NC2NC2=C1C(=O)CC(C)(C)C2 (some centres not stated) [US20250313563, Compound 943541] |
| > 7.00 | > 7.00 | CC[C@@]1(c2cccc(-c3ccnn3C)c2)C2=CN=NC2NC2=C1C(=O)NC1(CCCC1)C2 (some centres not stated) [US20250313563, Compound 948018] |
| 5.30 to 6.00 | 6.00 to 7.00 | CC1(C)CC(=O)C2=C(C1)NC1=C(CN=N1)[C@@]21CCOC1 [US20250313563, Compound 877314] |
| > 7.00 | > 7.00 | CC1N=NC2=C1C1(CCCC1)C1=C(CC(C)(C)CC1=O)N2 (configuration not stated) [US20250313563, Compound 786072] |
| < 5.30 | 5.30 to 6.00 | CC[C@@]1(c2ccccc2)C2=CN=NC2NC2=C1C(=O)C[C@]1(CCN(C)C1=O)C2 (some centres not stated) [US20250313563, Compound 949753] |
| 6.00 to 7.00 | > 7.00 | CCC1(c2cccc(-c3ccnc(OC)c3)c2)C2=CN=NC2NC2=C1C(=O)CC(C)(C)C2 (configuration not stated) [US20250313563, Compound 883850] |
| 6.00 to 7.00 | 6.00 to 7.00 | CC[C@]1(c2ccccc2)C2=CN=NC2NC2=C1C(=O)C[C@@](C)(C(F)(F)F)C2 (some centres not stated) [US20250313563, Compound 819568] |
| 6.00 to 7.00 | > 7.00 | CCC1(c2cccc(N(C)c3cc(C)ccn3)c2)C2=CN=NC2NC2=C1C(=O)CC(C)(C)C2 (configuration not stated) [US20250313563, Compound 943537] |
| 6.00 to 7.00 | 6.00 to 7.00 | CC[C@]1(c2ccccc2)C2=CN=NC2NC2=C1C(=O)C[C@@]1(CCCOC1)C2 (some centres not stated) [US20250313563, Compound 816879] |
